The METLIN SMRT retention time set (Domingo-Almenara et al. 2019)

Assay: gradient 5% acetonitrile 3 min, to 50% in 2 min, to 85% in 15 min, held 3 min, 100 µL/min
Details: column: Zorbax Extend-C18 2.1 x 50 mm; eluents: water / acetonitrile, 0.1% formic acid
How it was run: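 Using water and acetonitrile that each contained 0.1% formic acid, mixtures of ~100 pure standards were separated at 100 μL/min on a Zorbax Extend-C18 column (2.1 × 50 mm, 1.8 μm). The HPLC fed a quadrupole time-of-flight mass spectrometer working in positive and negative ionization mode, with dead and dwell volumes of 40 μL and 900 μL. Data were acquired over 3 months. Retention time was read from computationally picked adduct peaks after manual inspection of each.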

Structure (SMILES) | RP-LC retention time [s]
Cc1ccc(C)c(-c2cc3c(=O)n(Cc4nc(-c5cccc(Br)c5)no4)ncn3n2)c1 | 1340
CCCn1cnc2cc(CNC(=O)c3ccc(C(C)(C)C)cc3)ccc21 | 720
Cc1oc(-c2ccc(NC(=O)C3CCCC3)cc2)nc1Cn1cccn1 | 859
Clc1ccc(Cl)c(-c2ccc(CNCc3cccs3)o2)c1 | 772
CC(=O)c1cccc(NC(=O)c2cccc(Br)c2)c1 | 840
CC(C)CNC(=O)c1cn(-c2ccc(-c3nc(C4CC4)no3)cn2)cn1 | 1110
CCOC(=O)c1cc(S(=O)(=O)N2CCCC2C(=O)Nc2ccccc2)cn1C (stereo not given) | 903
Cc1cc(N2CCOCC2)n2nc(CN3CCC(Cc4ccccc4)CC3)nc2n1 | 641
CCCn1ccc2sc(C)c(C(=O)NCCC3=CCCCC3)c2c1=O | 1000
CCCNS(=O)(=O)c1cc(-c2c(CC)noc2NC(C)=O)ccc1C | 747
CC(C)OC(=O)Cn1c(C2CC(=O)N(Cc3ccccc3)C2)nc2ccccc21 (stereo not given) | 799
O=C(CN1C(=O)COc2ccccc21)N1CCN(c2ccc(-c3noc(C4CCC4)n3)cc2)CC1 | 1000
COc1cc(NC(=O)c2cn3c(n2)CN(CC(C)C)CC3)cc(OC)c1 | 818
CCCn1cc(CCNS(=O)(=O)c2c(C)cc(C)cc2C)c2cccnc21 | 962
CCCNC(=O)c1ccc2c(c1)CCCN2S(C)(=O)=O | 713
Cc1ccc(NC(=O)Cn2c(C)cc(-c3nnc(C4CCC4)o3)c2C)cc1C | 902
CCOCC(=O)N1CC(c2nc(-c3ccc(F)cc3)no2)C2(CCOCC2)C1 (stereo not given) | 771
CC(C)(C)N(Cc1ccc2c(c1)OCO2)C(=O)/C=C\S(=O)c1ccccc1 (stereo not given) | 902
COc1ccc(NC(=O)Cn2c(=O)n(-c3ccc(C)cc3)c3ncccc32)cc1OC | 802
O=C(NC(Cc1ccccc1)c1nnc(N2CCSCC2)o1)C1CCCC1 (stereo not given) | 806
Cc1cc2c(cc1S(=O)(=O)N1CCCC1C(=O)Nc1ccc3c(c1)OCCO3)OCC(=O)N2 (stereo not given) | 700
O=C(CSc1nnc(-c2ccco2)n1-n1cccc1)Nc1cccc(C(F)(F)F)c1 | 897
CSc1cccc(NC(=O)N2CCc3nc[nH]c3C2)c1 | 590

Structure (SMILES) | RP-LC retention time [s]
c1cnn(-c2ccc(-c3noc(C4CCC4)n3)cn2)c1 | 1090
CCCn1c(=O)sc2cc(S(=O)(=O)N3CCC(C(=O)N4CCCC4)CC3)ccc21 | 807
O=C(c1ccco1)N1N=C(c2ccco2)CC1c1ccc2nccnc2c1 (stereo not given) | 718
Cc1nc(C)c(C(=O)N2CCc3cc(-c4csc(C5CC5)n4)ccc32)s1 | 1020
CNC(=O)C1CCCN(c2nc3ncn(CC(=O)Nc4cc(F)ccc4F)c(=O)c3s2)C1 (stereo not given) | 641
CCOC(=O)c1c(C)[nH]c(CCC(=O)NC(C)c2ccccc2)c1C (stereo not given) | 853
O=C(NC1CCCC1)c1ccc(CN2CCN(Cc3ccc(F)cc3)C(=O)C2=O)cc1 | 768
COc1ccccc1-c1nnc(-c2cccc(S(=O)(=O)N3CCCC3)c2)o1 | 885
Fc1ccc(N2CCN(Cc3nnc(-c4ccccc4)o3)CC2)cc1 | 691
O=C(NCc1ccccc1)NC1CCN(c2nc3cccnc3n(Cc3ccccc3)c2=O)CC1 | 1020
Cc1ccc2c(Nc3ccccc3F)c(C(=O)N3CCCC3)cnc2n1 | 555
COc1ccc(NC(=O)c2c(O)c3cccnc3n(-c3ccc(F)cc3)c2=O)cc1Cl | 1250
COc1ccc(C(=O)N2CCC(C(=O)NCCc3csc(-c4cccs4)n3)CC2)cc1OC | 725
COc1ccc(CNC(=O)C2(C)CCCN(S(=O)(=O)c3cccc(C)c3)C2)cc1 (stereo not given) | 935
Cc1cc(CNC(=O)C(=O)Nc2cc(Cl)ccc2C#N)c(C)o1 | 958
Cc1ccc(C)c(-c2cc3c4nn(CC(=O)N(C)c5ccccc5)c(=O)n4ccn3n2)c1 | 1010
Cn1c(=O)c2c(nc3n2CC(=O)N(CCc2ccccc2)C3)n(C)c1=O | 657
CN1CCCN(C(=O)c2cn(-c3ccc(-c4nc(C(C)(C)C)no4)cn3)cn2)CC1 | 656
O=C(CCC1CCCN(S(=O)(=O)c2ccc(F)cc2)C1)NC1CC1 (stereo not given) | 764
Cc1noc([C@@H]2CN(CCCc3ccccc3)C[C@H]2CO)n1 | 612
CCCNC(=O)N1CCc2c(c(-c3nc(Cc4ccccc4)no3)nn2C)C1 | 780
Cc1cc(C)cc(-n2ccn(Cc3nc(-c4ccc(Cl)cc4)no3)c(=O)c2=O)c1 | 960
